Assay results: patent publication US11773132B2, “Cyclic di-nucleotides as stimulator of interferon genes modulators” (Beijing Xuanyi PharmaSciences Co., Ltd., priority 2017, dated 2023)

Target: T1, Human STING (Homo sapiens, UniProt Q86WV6, G230A/H232R/R293Q/R71H)
T1 construct: host or cells: THP1-Dual cells (human monocytic reporter line)
Test: THP1-Dual cell assay, IRF pathway reporter luminescence readout (QUANTI-Luc)
Type: cell-based
Details: THP1-Dual cells, 24 h, 30 μM, Table 2
Method: STING pathway activation by the compounds described herein was measured using THP-1 dual cells. These cells are THP1 monocytes that have been modified to be reporters for the IRF pathway, which is activated by STING agonists in these cells.
THP1-Dual cells (obtained from Invivogen) are maintained in growth medium with 100 ug/ml of Zeocin and 10 ug/ml of blasticidin at 37° C., 5% CO2, the cells were passaged every 3 days by inoculating 7×10^5 cells per ml and centrifuged at 1000 rpm for 5 min. Supernatant was removed and THP-1 Dual cells were re-suspended at 5×10^5 cells/ml in fresh pre-warmed growth medium.
[…]. 50 ul of Cell suspension (about 2.5×10^4 cells per well) was added in 384-well plate, which was incubated for 24 hours at 37° C., 5% CO2. QUANTI-Luc was prepared and used following the manufacturer's instructions, 5×10^3 cells per well were seeded in 40 μl medium and incubated overnight. Luminometer was set with the following parameters: 50u of injection, end-point measurement with a 4 second start time and 0.1 second reading time. 10 ul of THP-1 Dual cell culture medium per well was added into a 96-well white (opaque) plate, luminescence was measured and calculated.

T1 sequence (Q86WV6 whole entry R71H/G230A/H232R/R293Q): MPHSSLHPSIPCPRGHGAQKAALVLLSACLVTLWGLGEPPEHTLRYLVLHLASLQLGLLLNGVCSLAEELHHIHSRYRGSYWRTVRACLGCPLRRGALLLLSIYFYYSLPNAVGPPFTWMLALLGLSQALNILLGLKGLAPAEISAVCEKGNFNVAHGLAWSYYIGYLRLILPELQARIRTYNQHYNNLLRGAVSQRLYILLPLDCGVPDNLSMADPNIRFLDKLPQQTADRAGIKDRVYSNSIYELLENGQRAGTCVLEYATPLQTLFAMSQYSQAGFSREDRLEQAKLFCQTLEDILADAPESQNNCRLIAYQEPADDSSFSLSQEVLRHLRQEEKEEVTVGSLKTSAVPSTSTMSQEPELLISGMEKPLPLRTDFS

BP1(=O)OC[C@H]2O[C@@H](n3cnc4c(NCc5ccccc5)ncnc43)[C@H](OP(=O)(S)OC[C@H]3O[C@@H](n4cnc5c(NCc6ccccc6)ncnc54)[C@H](O)[C@@H]3O1)[C@@H]2O (single isomer, unassigned) [Compound D3]
Readout Average: 273875
Readout n = 1: 289010
Readout n = 2: 258740

BP1(=O)OC[C@H]2O[C@@H](n3cnc4c(NCc5ccccc5)ncnc43)[C@H](OP(=O)(S)OC[C@H]3O[C@@H](n4cnc5c(NCc6ccccc6)ncnc54)[C@H](O)[C@@H]3O1)[C@@H]2O (single isomer, unassigned) [Compound D1]
Readout Average: 22040
Readout n = 1: 22420
Readout n = 2: 21660
